For test [1], the system named is ICR mice with sepsis induced by cecal ligation and puncture. In words: Cecal ligation and puncture (CLP) model test, survival in sepsis. Conditions: 5 ICR mice; for 48-hour survival rate (%) (Mice survived/All mice): control 0% (0/5); for 24-hour survival rate (%) (Mice survived/All mice): control 20% (1/5). Type of test: in vivo. The source says:
Cecal Ligation and Puncture (CLP) Model Test
To verify excellent preventive and therapeutic effects of LPA as an effective ingredient of the pharmaceutical composition according to the present invention on sepsis, this test using CLP model animals in which sepsis was caused by inducing peritonitis by cecal ligation and puncture was undertaken.
After anesthetizing 15 ICR mice (weighing about 25 to 30 g; availably from MJ Ltd.) with pentobarbital, a right region of their abdomen was excised in 1 cm length to expose cecum, followed by ligating the lower area of ileocecal valve, making six punctures on the cecum with a 21 gauge needle and then suturing the abdomen, thereby inducing sepsis with the model mice.
At 2 and 4 hours after suturing, LPA(oleoyl-sn-glycerol-3-phosphate; Sigma Co.) dissolved in 10% DMSO solution was intraperitoneally administered to 5 ICR mice at a dose of about 10 mg/kg (Group A) and to another 5 ICR mice at a dose of about 50 mg/kg (Group B), and only a 10% DMSO solution was intraperitoneally administered to the other 5 ICR mice (Control group). The survival rates of ICR mice in groups A and B and control group were investigated in course of time.

In test [2] the test system is Sprague-Dawley rats with permanent focal cerebral ischemia by occlusion of middle cerebral artery. In words: Rat model with permanent focal cerebral ischemia by occlusion of middle cerebral artery, infarct area and volume. The class given is in vivo. Conditions: 20 mg/kg subcutaneously at 1 hour before and 2 and 6 hours after surgery. The source says:
To verify excellent preventive and therapeutic effects of LPA as an effective component of the pharmaceutical composition according to the present invention on stroke, the test using rat models induced with permanent focal cerebral ischemia by occlusion of middle cerebral artery, designed as follows, was undertaken.
Rat Model Induced with Permanent Focal Cerebral Ischemia by Occulusion of Middle Cerebral Artery
12 male Sprague-Dawley rats weighing about 250 to 269 g, were anaesthetized through inhalation of a mixed solution of 70% […] and 30% oxygen gas, the solution containing 2% isoflurane (Choongwae Pharma Corp., Korea), and then subjected to a slightly modified Nagasawa and Kogure's method (Nagasawa H and Kogure K (1989) Correlation between cerebral blood flow and histologic changes in a new rat model of middle cerebral artery occlusion. Stroke 20: 1037-1043), leading to occlusion of their right middle cerebral artery. Specifically, rats were anaesthetized, and then their cervix was incised along by the middle line of their neck. Then, after separately ligating their right common carotid artery and their external carotid artery carefully so as not to cause damage to their vagus nerve, the junction of their internal carotid artery were slightly cut and then a 17 mm long silicon rubber cylinder was carefully inserted thereinto, followed by ligating the internal carotid artery on the inserted cylinder. […]
At 24 hours after surgery, the rats of the test group and the control group were decapitated, and their brains were rapidly extracted, followed by washing with a cold saline solution. […] After the brain sections stained with TTC were fixed with 10% phosphate-buffered formalin, the area of cerebral infarcts on the posterior side of each section, which was visualized as an area of unstained tissue, was determined separately for cortex and striatum, by using an image analyzer.
In order to correct a change in the area of cerebral infarcts due to cerebral edema, the area of cerebral infarcts on each section was determined by subtracting the […] area in the right hemisphere with occluded middle cerebral artery from the area of the left hemisphere with unoccluded middle cerebral artery. Total areas of cerebral infarcts, obtained by summing the areas of infarcts in cortex and striatum that were measured at each brain section, were averaged, and the results were shown in FIG. 1. […]

Setting [3] is: Group A: about 10 mg/kg intraperitoneally at 2 and 4 hours after suturing.
Setting [4] is: Group B: about 50 mg/kg intraperitoneally at 2 and 4 hours after suturing.
Setting [5] is: 24 hours after surgery, mean±standard deviation, 4 test rats, p<0.001.

Turning to oleoyl-sn-glycerol-3-phosphate [LPA], in test [1] (setting [3]), the “48-hour survival rate (%) (Mice survived/All mice)” value is 40% (2/5) and the “24-hour survival rate (%) (Mice survived/All mice)” value is 60% (3/5). In test [1] (setting [4]), the “48-hour survival rate (%) (Mice survived/All mice)” value is 40% (2/5) and the “24-hour survival rate (%) (Mice survived/All mice)” value is 60% (3/5). In addition, in test [2] (setting [5]), the “reduction of the infarcted volume in cortex compared with control group rats” value is 44.6±3.6%, the “reduction of the infarcted volume in striatum compared with control group rats” value was 55.3±21.0% and the “reduction of total infarcted volume compared with control group rats” value amounted to 47.8±7.1%. Besides, the “total area of infarcts (cortex and striatum) compared to control group rats” value in test [2] (measured 24 hours after surgery, FIG. 1) is “noticeable reduction in total area of infarcts”.

The values above are taken from patent US20040176323A1, “Pharmaceutical composition comprising lysophophatidic acid” (priority 2001, published 2004).
